Assay [1] deals with Serine-protein kinase ATM (Homo sapiens, UniProt Q13315). Put plainly: Inhibitory Activities of Compounds on ATM. How it is done:
To a 96-well plate, 98 μL of DMSO and 2 μL of the 10 mM stock solution were added and mixed evenly so that the concentration of the solution was 200 μM.

Assay [2] concerns the target Phosphatidylinositol 4,5-bisphosphate 3-kinase catalytic subunit alpha isoform (Homo sapiens, UniProt P42336). Put plainly: Inhibitory Activities of Compounds on PI3Kα, PI3Kβ, PI3Kγ, and PI3Kδ Kinase: ADP-Glo Kinase Assay. On the procedure: (§1) (1) Preparation of 1× kinase buffer50 mM HEPES, pH 7.53 mM MgCl21 mM EGTA100 mM NaCl0.03% CHAPS2 mM DTT(2) Preparation of test compound1) Dissolution and dilution of compound:The compound was dissolved in DMSO to yield a stock solution. Before the assay, the stock solution of the compound was diluted with DMSO in a 384-well plate to yield a 100× solution at a concentration that is 100 times a target concentration for assay.50 μL of DMSO was added, respectively, into two blank wells in the same 384 well plate, corresponding to the total reaction control without compound and the blank control without enzyme.2) Preparation of test plate: 50 nL of the compound solution in each of the above wells was taken to a test plate.(3) Kinase reaction1) PI3Kα, PI3Kβ, PI3Kγ, and PI3Kδ kinases were dissolved, respectively, in 1× kinase buffer to yield a 2× enzyme solution at a concentration that is twice the final concentration. 2.5 µL of the 2× enzyme solution was taken to each well of the test plate. The blank control without enzyme was added with 2.5 μL of the 1× kinase buffer instead of the enzyme solution. The test plate was shaken for mixing evenly.2) PIP2 substrate and ATP were dissolved in the 1× kinase buffer to yield a 2× substrate solution that is twice the final concentration. 2.5 μL of the 2× substrate solution was taken to each well of the test plate. The test plate was shaken for mixing evenly.3) Kinase reactionEach well of the test plate was covered and incubated at room temperature for 1 h.(4) Kinase detection1) The ADP-Glo reagent was equilibrated at room temperature.2) 5 μL of ADP-Glo reagent was added to each well of the test plate to terminate the reaction.3) The plate was centrifuged for a short time to mix evenly, shaken gently, and equilibrated for 120 min.4) 10 μL of kinase detection reagent was added to each well, with shaking for 1 min, after equilibrating for 30 min, […] detection was performed.(5) Reading of the reaction wells(6) Calculation of inhibitory rates by means of curve fitting to the read values
(ADP-Glo first removes unused ATP, then detects ADP through luciferase.)

Assay [3] addresses T1, Phosphatidylinositol 4,5-bisphosphate 3-kinase catalytic subunit delta isoform (Homo sapiens, UniProt O00329).
T1 sequence (O00329 whole entry): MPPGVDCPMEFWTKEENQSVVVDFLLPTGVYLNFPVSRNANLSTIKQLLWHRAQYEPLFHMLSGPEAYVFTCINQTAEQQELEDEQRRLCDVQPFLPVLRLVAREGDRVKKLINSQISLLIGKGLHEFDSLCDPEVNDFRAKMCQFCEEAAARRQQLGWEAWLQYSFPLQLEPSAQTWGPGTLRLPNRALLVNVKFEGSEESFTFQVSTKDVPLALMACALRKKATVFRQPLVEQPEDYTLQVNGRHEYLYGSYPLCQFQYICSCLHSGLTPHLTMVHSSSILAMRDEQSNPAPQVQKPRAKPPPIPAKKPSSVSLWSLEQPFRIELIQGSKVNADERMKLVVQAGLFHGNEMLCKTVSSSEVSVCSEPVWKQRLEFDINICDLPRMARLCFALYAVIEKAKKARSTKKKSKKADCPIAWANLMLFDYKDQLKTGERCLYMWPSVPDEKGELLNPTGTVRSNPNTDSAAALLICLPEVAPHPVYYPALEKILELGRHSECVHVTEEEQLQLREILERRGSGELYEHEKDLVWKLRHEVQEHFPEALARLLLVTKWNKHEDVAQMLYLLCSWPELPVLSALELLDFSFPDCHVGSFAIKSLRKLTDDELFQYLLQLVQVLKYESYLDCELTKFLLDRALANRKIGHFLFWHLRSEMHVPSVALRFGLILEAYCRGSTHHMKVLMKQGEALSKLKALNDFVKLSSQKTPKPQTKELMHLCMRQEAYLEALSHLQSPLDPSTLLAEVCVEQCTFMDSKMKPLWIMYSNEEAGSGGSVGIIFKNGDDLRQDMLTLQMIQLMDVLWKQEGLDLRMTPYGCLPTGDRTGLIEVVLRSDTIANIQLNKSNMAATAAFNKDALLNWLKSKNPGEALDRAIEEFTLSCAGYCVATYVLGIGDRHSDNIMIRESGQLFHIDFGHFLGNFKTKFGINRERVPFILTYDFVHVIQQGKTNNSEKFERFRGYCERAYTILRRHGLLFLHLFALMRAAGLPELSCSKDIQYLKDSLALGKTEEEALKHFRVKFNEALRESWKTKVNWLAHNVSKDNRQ
The assay is described as above. On the procedure:
as §1

Assay [4] concerns the target Phosphatidylinositol 4,5-bisphosphate 3-kinase catalytic subunit gamma isoform (Homo sapiens, UniProt P48736). Described as above. How it is done: as §1
Assay [5] deals with Phosphatidylinositol 4,5-bisphosphate 3-kinase catalytic subunit beta isoform (Homo sapiens, UniProt P42338). Described as above. On the procedure:
as §1

Assay [6] has as its target Serine/threonine-protein kinase ATR (Homo sapiens, UniProt Q13535). Nature of the assay: Inhibitory Activity of Compounds on ATR. On the procedure: (1) Preparation of 1 kinase buffer and reaction termination solution1) 1 kinase buffer50 mM HEPES, pH 7.50.0015% Brij-[…] MnCl22) Reaction termination solution100 mM HEPES, pH 7.50.015% Brij-350.2% Coating Reagent #350 mM EDTA(2) Preparation of test compound1) The compound was dissolved in DMSO to yield a stock solution. Before the assay, to a 96-well plate, 30 uL of a 10 mM stock solution was taken and added with 60 uL of DMSO. […] 10 µL of the 2 substrate solution was taken to each well of the test plate.3) Kinase reaction:After incubation at 28 C. for a certain time, 30 uL of the reaction termination solution was added to terminate the enzymatic reaction.(5) Reading of the reaction wells(6) Calculation of inhibitory rates by means of curve fitting to the read values.% inhibitory rate=(max+-sample value)/(max+-min)*100; wherein max represents the value of the total reaction well with DMSO but no compound; min represents the value of the blank control well without enzyme and compound.

Assay [7] addresses DNA-dependent protein kinase catalytic subunit (Homo sapiens, UniProt P78527). Nature of the assay: Inhibitory Activities of Compounds on DNA-PK Kinase: ADP-Glo Kinase Assay. On the procedure:
(1) Preparation of 1× kinase buffer40 mM Tris, pH 7.50.0055% Brij-3520 mM MgCl20.05 mM DTT(2) Preparation of test compound1) The compound was dissolved in DMSO to yield a stock solution. Before the assay, the stock solution of the compound was diluted with DMSO to yield a 100× solution at a concentration that is 100 times a target concentration for assay. […] The test plate was shaken for mixing evenly.3) Kinase reactionEach well of the test plate was covered and incubated at room temperature for 3 h.(4) Kinase detection1) The ADP-Glo reagent was equilibrated at room temperature.2) 5 μL of ADP-Glo reagent was added to each well of the test plate to terminate the reaction.3) The plate was centrifuged for a short time to mix evenly, shaken gently, and equilibrated for 120 min.4) 10 μL of kinase detection reagent was added to each well, with shaking for 1 min, after equilibrating for 30 min, […] detection was performed.(5) Reading of the reaction wells(6) Calculation of inhibitory rates by means of curve fitting to the read values.

SMILES strings stand for the structures.

The source of these data is BindingDB's records for patent US20240294545 (Cspc Zhongqi Pharmaceutical Technology (Shijiazhuang), 2024).

Serine-protein kinase ATM, sequence (Q13315 whole entry): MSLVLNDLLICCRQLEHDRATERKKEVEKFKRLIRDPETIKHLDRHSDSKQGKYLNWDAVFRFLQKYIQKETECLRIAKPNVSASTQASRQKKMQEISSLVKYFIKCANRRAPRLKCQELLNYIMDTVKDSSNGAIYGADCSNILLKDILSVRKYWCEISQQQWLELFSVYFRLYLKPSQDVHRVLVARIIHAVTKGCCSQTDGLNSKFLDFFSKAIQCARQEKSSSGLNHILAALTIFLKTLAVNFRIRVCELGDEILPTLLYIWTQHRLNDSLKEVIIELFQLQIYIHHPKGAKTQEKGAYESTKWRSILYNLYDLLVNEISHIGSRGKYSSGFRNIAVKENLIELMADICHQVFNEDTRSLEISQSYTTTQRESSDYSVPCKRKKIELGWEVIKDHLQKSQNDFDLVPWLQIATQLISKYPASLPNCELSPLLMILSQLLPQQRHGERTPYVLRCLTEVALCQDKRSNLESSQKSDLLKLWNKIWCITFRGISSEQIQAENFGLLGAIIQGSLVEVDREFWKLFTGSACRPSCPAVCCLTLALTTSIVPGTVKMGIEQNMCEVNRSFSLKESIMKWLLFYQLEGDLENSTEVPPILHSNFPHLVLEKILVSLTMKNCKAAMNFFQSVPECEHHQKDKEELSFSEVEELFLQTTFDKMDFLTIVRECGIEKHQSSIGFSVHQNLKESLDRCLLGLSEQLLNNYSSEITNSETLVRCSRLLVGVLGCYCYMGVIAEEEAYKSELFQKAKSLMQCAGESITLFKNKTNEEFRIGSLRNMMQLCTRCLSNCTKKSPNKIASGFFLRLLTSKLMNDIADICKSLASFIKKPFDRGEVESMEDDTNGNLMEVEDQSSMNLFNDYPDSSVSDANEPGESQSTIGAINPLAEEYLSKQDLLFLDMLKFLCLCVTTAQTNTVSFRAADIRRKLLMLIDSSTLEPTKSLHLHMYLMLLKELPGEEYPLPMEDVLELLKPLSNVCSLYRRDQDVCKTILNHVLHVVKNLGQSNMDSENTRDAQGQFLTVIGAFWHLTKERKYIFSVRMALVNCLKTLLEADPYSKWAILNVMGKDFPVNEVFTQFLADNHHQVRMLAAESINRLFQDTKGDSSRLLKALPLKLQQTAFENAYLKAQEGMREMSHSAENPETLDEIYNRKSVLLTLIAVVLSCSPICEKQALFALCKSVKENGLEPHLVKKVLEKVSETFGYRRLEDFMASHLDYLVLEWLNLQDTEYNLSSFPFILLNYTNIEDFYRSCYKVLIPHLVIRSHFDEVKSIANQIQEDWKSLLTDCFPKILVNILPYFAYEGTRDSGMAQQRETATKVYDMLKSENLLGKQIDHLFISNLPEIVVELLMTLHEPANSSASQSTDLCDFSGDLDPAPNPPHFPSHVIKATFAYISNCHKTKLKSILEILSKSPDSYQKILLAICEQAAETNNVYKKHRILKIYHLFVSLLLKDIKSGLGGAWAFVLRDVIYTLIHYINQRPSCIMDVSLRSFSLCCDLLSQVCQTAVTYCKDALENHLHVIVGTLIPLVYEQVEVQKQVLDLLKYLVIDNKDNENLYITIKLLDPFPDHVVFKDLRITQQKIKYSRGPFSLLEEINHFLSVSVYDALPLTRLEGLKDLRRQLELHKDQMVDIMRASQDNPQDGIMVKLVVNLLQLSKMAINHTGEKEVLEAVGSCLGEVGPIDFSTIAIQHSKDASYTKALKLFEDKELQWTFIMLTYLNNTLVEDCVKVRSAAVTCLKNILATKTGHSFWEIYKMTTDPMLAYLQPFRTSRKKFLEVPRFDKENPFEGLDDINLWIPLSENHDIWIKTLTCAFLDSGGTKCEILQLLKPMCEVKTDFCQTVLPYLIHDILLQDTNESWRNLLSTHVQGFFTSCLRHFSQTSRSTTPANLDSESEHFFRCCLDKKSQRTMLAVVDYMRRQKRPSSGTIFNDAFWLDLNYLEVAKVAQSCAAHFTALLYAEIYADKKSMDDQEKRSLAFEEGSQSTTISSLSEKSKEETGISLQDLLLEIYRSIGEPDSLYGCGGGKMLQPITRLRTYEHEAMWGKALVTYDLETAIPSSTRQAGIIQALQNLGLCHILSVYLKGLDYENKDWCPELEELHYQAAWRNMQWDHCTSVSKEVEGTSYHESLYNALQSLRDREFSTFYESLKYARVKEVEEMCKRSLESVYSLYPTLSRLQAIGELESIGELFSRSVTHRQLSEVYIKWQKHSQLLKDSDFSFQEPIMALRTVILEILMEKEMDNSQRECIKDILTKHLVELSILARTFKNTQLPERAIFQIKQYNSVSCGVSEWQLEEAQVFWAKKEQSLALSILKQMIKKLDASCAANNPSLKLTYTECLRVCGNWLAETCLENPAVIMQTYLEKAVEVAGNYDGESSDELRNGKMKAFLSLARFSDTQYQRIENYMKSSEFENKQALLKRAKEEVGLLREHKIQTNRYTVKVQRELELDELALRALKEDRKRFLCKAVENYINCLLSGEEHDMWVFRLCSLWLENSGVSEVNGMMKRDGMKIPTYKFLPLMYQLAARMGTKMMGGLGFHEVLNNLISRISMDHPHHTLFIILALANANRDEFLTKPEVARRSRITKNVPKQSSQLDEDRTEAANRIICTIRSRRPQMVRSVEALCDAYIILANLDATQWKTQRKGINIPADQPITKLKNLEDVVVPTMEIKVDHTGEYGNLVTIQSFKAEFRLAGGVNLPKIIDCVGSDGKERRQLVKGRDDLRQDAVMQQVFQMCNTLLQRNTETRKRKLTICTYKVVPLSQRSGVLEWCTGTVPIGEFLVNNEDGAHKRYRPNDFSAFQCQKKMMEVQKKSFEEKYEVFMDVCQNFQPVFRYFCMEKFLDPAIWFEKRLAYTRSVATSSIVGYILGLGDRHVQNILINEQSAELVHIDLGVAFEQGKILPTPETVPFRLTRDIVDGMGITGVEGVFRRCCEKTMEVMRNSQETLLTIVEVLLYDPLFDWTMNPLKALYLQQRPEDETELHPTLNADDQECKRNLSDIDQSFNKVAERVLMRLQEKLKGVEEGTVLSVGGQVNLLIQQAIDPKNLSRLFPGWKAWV
Phosphatidylinositol 4,5-bisphosphate 3-kinase catalytic subunit gamma isoform, sequence (P48736 whole entry, canonical isoform): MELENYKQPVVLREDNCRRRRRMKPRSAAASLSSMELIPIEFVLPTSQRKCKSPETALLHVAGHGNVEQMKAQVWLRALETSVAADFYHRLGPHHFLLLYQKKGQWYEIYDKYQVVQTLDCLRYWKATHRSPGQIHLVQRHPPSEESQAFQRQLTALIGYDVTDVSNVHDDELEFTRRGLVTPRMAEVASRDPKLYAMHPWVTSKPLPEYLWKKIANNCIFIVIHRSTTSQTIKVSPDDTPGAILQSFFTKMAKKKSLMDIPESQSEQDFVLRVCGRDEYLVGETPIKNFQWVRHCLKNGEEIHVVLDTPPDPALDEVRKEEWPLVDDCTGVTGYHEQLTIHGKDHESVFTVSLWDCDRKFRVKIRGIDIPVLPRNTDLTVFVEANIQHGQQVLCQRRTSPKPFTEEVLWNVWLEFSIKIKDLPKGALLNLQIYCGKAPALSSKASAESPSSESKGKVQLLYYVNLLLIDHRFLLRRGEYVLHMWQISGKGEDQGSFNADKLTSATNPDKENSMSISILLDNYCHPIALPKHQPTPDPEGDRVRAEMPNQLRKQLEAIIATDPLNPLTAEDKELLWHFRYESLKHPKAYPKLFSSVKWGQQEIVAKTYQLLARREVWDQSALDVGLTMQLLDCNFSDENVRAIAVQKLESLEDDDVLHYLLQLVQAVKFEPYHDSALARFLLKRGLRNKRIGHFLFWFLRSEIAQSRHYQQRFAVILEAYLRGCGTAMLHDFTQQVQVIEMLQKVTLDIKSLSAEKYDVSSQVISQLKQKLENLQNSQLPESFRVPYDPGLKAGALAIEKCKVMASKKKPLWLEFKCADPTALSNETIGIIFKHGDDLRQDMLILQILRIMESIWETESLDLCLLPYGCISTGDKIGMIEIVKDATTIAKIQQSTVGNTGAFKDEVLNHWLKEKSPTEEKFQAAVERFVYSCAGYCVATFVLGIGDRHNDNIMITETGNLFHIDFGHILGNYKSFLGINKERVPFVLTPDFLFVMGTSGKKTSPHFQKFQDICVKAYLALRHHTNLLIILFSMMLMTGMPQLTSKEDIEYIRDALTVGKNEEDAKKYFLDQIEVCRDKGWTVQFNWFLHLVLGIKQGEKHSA

The term IC50 denotes the concentration needed to halve the response being measured. High values mean weaker potency in that assay, low ones greater potency in that assay. In the case of `Cn1c(=O)n2c3c4c(c(-c5ccc(OCCCN6CCC(F)CC6)nc5)c(F)cc4ncc31)OCC21CCC1` [US20240294545, Compound A-165], in assay [1], the IC50 is 0.37 nM.
Still for that read-out and setting: for `CC[C@@H]1CNc2c(-c3ccc(OCCCN4CCCCC4)nc3)ccc3ncc4c(c23)n1c(=O)n4C` [US20240294545, Compound A-201] the value was 0.61 nM; for `CC[C@@H]1CNc2c(-c3ccc(OCCCN4CCCCC4)nc3)c(F)cc3ncc4c(c23)n1c(=O)n4C` [US20240294545, Compound A-194], 0.45 nM; for `Cn1c(=O)n2c3c4c(c(-c5ccc(OCCCN6CCC7(CC6)COC7)nc5)c(F)cc4ncc31)OCC21CCC1` [US20240294545, Compound A-167], 0.33 nM.
`Cn1c(=O)n2c3c4c(c(-c5ccc(OCCCN6CCC(C#N)CC6)nc5)c(F)cc4ncc31)OCC21CCC1` [US20240294545, Compound A-166] registered an IC50 in assay [1] of 0.21 nM.
In assay [1], `COc1cc2ncc3c4c2c(oc2ccccc2n4c(=O)n3C)c1-c1cnn(C)c1` [US20240294545, Compound A-33] registered a half-inhibitory concentration (IC50) of 0.08 nM.
In turn, `Cn1c(=O)n2c3c4c(c(-c5ccc(OCCCN6CCCCC6)nc5)c(F)cc4ncc31)OCC21CCOCC1` [US20240294545, Compound A-204] had an IC50 in assay [1] of 0.78 nM.
With `Cn1c(=O)n2c3c4c(c(-c5ccc(OCCCN6CC7CC7C6)nc5)c(F)cc4ncc31)OCC21CCC1` (stereo not given) [US20240294545, Compound A-170], the 50% inhibitory concentration (IC50) in assay [1] came to 0.7 nM.
Turning to `Cn1c(=O)n2c3c4c(c(-c5ccc(OCCCN6CCCCC6)nc5)c(F)cc4ncc31)OC1CCCCC12` (stereo not given) [US20240294545, Compound A-21], the IC50 in assay [2] is greater than 10000 nM; in assay [3], greater than 10000 nM; in assay [4] it was greater than 10000 nM; in assay [5], greater than 10000 nM; in assay [1] it was 0.45 nM; in assay [6], greater than 10000 nM. The same molecule had a concentration for half-maximal inhibition (IC50) in assay [7] of 2230 nM.
